Measured values published in patent US8017578B2, “Orally active peptides that prevent cell damage and death” (The United States of America as represented by the …, priority 1999, dated 2011).
“Also recorded” adds a separate entry of the source. Read-outs that look alike come from different tables or passages of the source. Square brackets hold non-standard residues; d marks the D form. Ends that are not written are not given here.

What was measured:
[1] = test system: dissociated cerebral cortical cultures (neurons); format: cell-based, rat; conditions: 5 days
mice = assay: fetal alcohol syndrome (FAS) model in pregnant mice; conditions: for fetal demise rate: pretreatment 30 minutes prior to alcohol on E8, 20 μg (each), injection, assessed E18, vs alcohol group
[2] = test system: choline acetyl transferase activity; conditions: ApoE-deficient mice with reduced choline acetyl transferase activity; cited from earlier work
AF64A-treated rats = assay: AF64A cholinotoxicity in adult rats, Morris water maze; format: in vivo; conditions: for Morris water maze, summation of the two daily tests, vs AF64A / Morris water maze, summation of the two daily tests: 10 microgram per rat per day under the tongue
Description: FIGS. 14A and B illustrate the effect of oral administration of D-NAPVSIPQ+D-SALLRSIPA on learning and memory in rats treated with the cholinotoxin AF-64A. Short-term memory processes were examined by performance in the Morris water maze, measuring the time required to find the hidden platform in the second of two daily trials. The platform location and the starting point in which the animal was placed in the water were held constant within each pair of daily trials, but both locations were changed every day. For the first test, both the platform and the animal were situated in a new location with regard to the pool (with the pool being immobile). The experiment was performed as follows: the animal was positioned on the platform for 0.5 minute, then placed in the water. […] After 0.5 minute on the platform, the animal was placed back in the water (in the previous position) for an additional second test (FIG. 14B) and search for the hidden platform (retained in the previous position). The time required to reach the platform in the second trial was recorded, indicative of short-term (working) memory. All measurements were performed using the computerized video-assisted HVS water maze system (HVS Image Ltd. Hampton, UK). Animals were tested for four days to eliminate random memory defective animals. The designated n is the number of animals tested. Each point is the mean+the standard error.
Rats (male Wistar, 300-350 g) were subjected to two daily tests in a water maze, including a hidden platform (Morris, J. Neurosci. Methods 11:47-60 (1984) and Gordon et al., Neurosci. Lett. 199:1-4 (1995); Gozes et al., J. Neurobiol. 33:329-342 (1997)). Every day for the first test, both the platform and the animal were situated in a new location with regard to the pool (with the pool being immobile). The experiment was performed as follows: the animal was positioned on the platform for 0.5 minutes then placed in the water. The time required to reach the platform (indicative of learning and intact reference memory) was measured (first test). After 0.5 minute on the platform, the animal was placed back in the water (in the previous position) for an additional second test and search for the hidden platform (retained in the previous position). The time required to reach the platform in the second trial was recorded, indicative of short-term (working) memory. All measurements were performed using the computerized video-assisted HVS water maze system (HVS Image Ltd. Hampton, UK). Animals were tested for four days to eliminate random memory defective animals. The best performers were injected i.c.v. at a rate of 0.21 μl/min. with the cholinotoxin ethylcholine aziridium (AF64A, 3 nmolI2 μl/side), control animals received an injection of saline (Gozes et al, Proc. Natl. Acad. Sci. USA 93:427-432 (1996)).
Animals were allowed to recover for one week, followed by daily exposure to three micrograms of D-SAL+three micrograms of D-NAP, in 20 microliter saline, applied orally on the tongue. After a week of oral peptide application, the animals were subjected to two daily tests in the water maze (as above). During the test-period, animals were also given an oral administration of peptide or vehicle (carrier) an hour before the daily test.
FIG. 14C illustrates the effect of oral administration of D-SALLRSIPA alone on learning and memory in rats treated with the cholinotoxin AF-64A. Rats were treated with the cholinotoxin AF-64A and D-SALLRSIPA as described in Gozes et al., J. Pharmacol. Exp. Therap. 293: 1091-1098 (2000), except that D-SALLRSIPA was delivered to AF64A-treated rats was as follows: 10 microgram D-SALLRSIPA (D-SAL) per rat (250-300 g) per day in 50 microliter saline under the tongue, using a micropipette. Peptides were applied once daily for three days, a week after the AF64A lesion. After a 2-day cessation, peptides were applied once daily for another 5 days and tested from day three on. […]

[3] = single peptide, 1 μM tetrodotoxin, neuronal cell counts

| Substance | survival-promoting activity (preventing neuronal cell death associated with electrical blockade with TTX) [1, 3] | fetal demise rate (mice) | cholinergic function [2] | further results |
| --- | --- | --- | --- | --- |
| Asn-Ala-Pro-Val-Ser-Ile-Pro-Gln [D-NAP] | very similar, with each exhibiting a complex dose response with two apparent maxima; also recorded: virtually identical in neuronal survival activity in vitro | significantly reduced the fetal demise rate; also recorded: prevents fetal demises | – | – |
| Asn-Ala-Pro-Val-Ser-Ile-Pro-Gln [L-NAP, reference compound] | very similar, with each exhibiting a complex dose response with two apparent maxima; also recorded: virtually identical in neuronal survival activity in vitro | – | significantly increased cholinergic function to control levels | – |
| D-NA{L-P}VSIPQ: NAPVSIPQ with all amino acids in the D-form, except the third proline residue in the L-form | – | – | – | survival-promoting activity (preventing neuronal cell death associated with electrical blockade with TTX) [1]: retained survival-promoting activity and was effective in cell culture in preventing neuronal cell death |
| SALLRSIPA [L-SAL] | – | – | less effective | – |
| SALLRSIPA [reference compound] | identical in both potency and efficacy; also recorded: virtually identical in neuronal survival activity in vitro | – | – | – |
| Ser-Ala-Leu-Leu-Arg-Ser-Ile-Pro-Ala [D-SAL] ([dS][dA][dL][dL][dR][dS][dI][dP][dA]) | identical in both potency and efficacy; also recorded: virtually identical in neuronal survival activity in vitro | significantly reduced the fetal demise rate; also recorded: prevents fetal demises | – | fetal death (mice; oral by gavage 30 minutes prior to alcohol, 40 μg, assessed on E18): prevent fetal death; learning and memory, overall conclusion (AF64A-treated rats; D-SALLRSIPA alone, oral, AF64A-treated rats): effective on its own; Morris water maze, summation of the two daily tests, vs AF64A (AF64A-treated rats; Day 1): P<0.04 D-SALLRSIPA-AF64A vs. AF64A; Morris water maze, summation of the two daily tests (AF64A-treated rats; Day 2): not significantly different from either AF64A animals or control; Morris water maze, summation of the two daily tests (AF64A-treated rats; Day 3): No difference; Morris water maze, summation of the two daily tests (AF64A-treated rats; Day 4): No difference; Morris water maze, summation of the two daily tests, vs AF64A (AF64A-treated rats; Day 5, t-test): P<0.04 D-SALLRSIPA-AF64A vs. AF64A |
